Results reported in BigSolDB 2.1.

COC1CCC2(CC1)NC(=O)C(c1cc(C)ccc1C)=C2O (stereo not given)
solubility (mole fraction)
Conditions	288.15 K	293.15 K	298.15 K	303.15 K	308.15 K	313.15 K	318.15 K	323.15 K	328.15 K
in acetonitrile	0.000317	0.000345	0.000375	0.000463	0.00057	0.000681	0.000791	0.000923	0.0011
in ethanol	0.00255	0.00276	0.00302	0.00341	0.00392	0.00447	0.00513	0.00596	0.00681
in methanol	0.00339	0.00379	0.00431	0.00473	0.00528	0.00589	0.00656	0.00735	0.00832
in n-propanol	0.00252	0.00303	0.00348	0.00402	0.00453	0.00518	0.00603	0.00697	0.00799
in water	1.96e-06	3.14e-06	4.08e-06	5.12e-06	6.15e-06	7.28e-06	8.43e-06	9.14e-06	1.05e-05
